Reference: US11492343B2, “Polymorph of flibanserin and preparation method thereof and use of same” (priority 2016, dated 2022)

Experiments:
[1] = prior art; cited from earlier work
[2] = prior art WO2003/014079; cited from earlier work
[3] = Solubility of crystal forms in pH 6.8 buffer solution (HPLC of filtrate); type: physicochemical; details: for Solubility in pH 6.8 buffer: 20 mg in 1 mL pH 6.8 buffer, suspension equilibrated for 1 hour, 0.45 μm filter, HPLC; for Solubility compared with crystal form A: in physiological solution
Description: The solubility of several new crystal forms prepared in the above examples and Form A (prepared according to the method of WO2003/014079) in a pH buffer solution (pH 6.8) was determined. Precisely weigh 20 mg Form I, Form II, Form V and Form A in a 2-mL glass vial, add 1 mL of pH 6.8 buffer, seal with cap, and mix on a rotating mixer. After the suspension was equilibrated for 1 hour, the mixture was filtered through a 0.45 μm needle filter, and the concentration of flibanserin in the filtrate was analyzed by HPLC to obtain the solubility of different crystal forms.

SMILES	Solubility in water [1]	Stability under pressure and mechanical stress conditions [2]	Solubility in pH 6.8 buffer [3] [mg/mL]	Solubility compared with crystal form A [3]
O=c1[nH]c2ccccc2n1CCN1CCN(c2cccc(C(F)(F)F)c2)CC1 [Form A]	very small			
O=c1[nH]c2ccccc2n1CCN1CCN(c2cccc(C(F)(F)F)c2)CC1 [Form B]		low stability		
O=c1[nH]c2ccccc2n1CCN1CCN(c2cccc(C(F)(F)F)c2)CC1 [Form I]			0.004	greater
O=c1[nH]c2ccccc2n1CCN1CCN(c2cccc(C(F)(F)F)c2)CC1 [Form V]			0.010	greater
O=c1[nH]c2ccccc2n1CCN1CCN(c2cccc(C(F)(F)F)c2)CC1 [Form II]			0.008	greater
